Patent US20230382923A1, “FUSED TETRACYCLIC QUINAZOLINE DERIVATIVES AS INHIBITORS OF ERBB2” (EnLiven Therapeutics, Inc., priority 2021, published 2023)

Columns and labels:
[1] = molecular target: phosphorylated EGFR (pEGFR) (Homo sapiens (Human), UniProt P00533); test: Detection of phosphorylated EGFR (pEGFR) by AlphaLISA in A431 cells; type: cell-based; conditions: A431 cells (10% FBS), 4 hours incubation, EGF 30 ng/mL for 10 minutes
Method: […] were performed to measure phosphorylated EGFR levels using A431 cells (10% FBS). A431 (1.0*10^4cells/40 μl/well) cells were seeded in 384 well. Compounds were dissolved in DMSO, serially diluted in DMSO and then were added, mixed, and incubated for 4 hours at 37° C., […]. Following the 4-hours incubation, cells were stimulated for 10 minutes with EGF (Invitrogen, cat #PHG0311) at a final concentration of 30 ng/mL in the incubator. The media was aspirated and cells were lysed in 10 μL lysis buffer with protease and phosphatase inhibitors (PerkinElmer, cat #ALSU-PEGFR-A50K). The plates were placed on a shaker for 5 minutes and then incubated for 30 min at 4° C. for complete lysis. The lysate was transferred to an Optiplate (Perkin Elmer, cat #6007290).
Acceptor mix (PerkinElmer, cat #ALSU-PEGFR-A50K) was prepared just before use and 5 μL was dispensed to all the wells, followed by a 1.5-2 h incubation at room temperature in dark. The donor mix (PerkinElmer, cat #ALSU-PEGFR-A50K) was prepared under low light conditions prior to use and 5 μl of donor mix was added to all the wells under subdued lighting or green filters. The plates were placed on a shaker for 5 min, sealed, and incubated overnight at room temperature in dark. Plates were read on the Envision (PerkinElmer) using standard AlphaLISA settings.
The percentage of inhibition on EGFR phosphorylation was calculated following equation: % Inhibition=100×(LumHC−LumSample)/(LumHC−LumLC). The low and high controls (LC/HC) are generated from lysate from wells with cells treated with DMSO or […] Staurosporine (BioAustralis, cat #BIA-S1086), […]. IC50 values were calculated by fitting the Curve using XLfit (v5.3.1.3), equation 201: Y=Bottom+(Top−Bottom)/(1+10^((LogIC50−X)*HillSlope)).

[2] = molecular target: phosphorylated ERBB2 (pERBB2) (Homo sapiens (Human), UniProt P04626); test: Detection of phosphorylated ERBB2 (pERBB2) by ELISA in BT-474 cells; type: cell-based; conditions: four hours incubation with compound
phosphorylated ERBB2 (pERBB2), sequence (P04626 23-1255): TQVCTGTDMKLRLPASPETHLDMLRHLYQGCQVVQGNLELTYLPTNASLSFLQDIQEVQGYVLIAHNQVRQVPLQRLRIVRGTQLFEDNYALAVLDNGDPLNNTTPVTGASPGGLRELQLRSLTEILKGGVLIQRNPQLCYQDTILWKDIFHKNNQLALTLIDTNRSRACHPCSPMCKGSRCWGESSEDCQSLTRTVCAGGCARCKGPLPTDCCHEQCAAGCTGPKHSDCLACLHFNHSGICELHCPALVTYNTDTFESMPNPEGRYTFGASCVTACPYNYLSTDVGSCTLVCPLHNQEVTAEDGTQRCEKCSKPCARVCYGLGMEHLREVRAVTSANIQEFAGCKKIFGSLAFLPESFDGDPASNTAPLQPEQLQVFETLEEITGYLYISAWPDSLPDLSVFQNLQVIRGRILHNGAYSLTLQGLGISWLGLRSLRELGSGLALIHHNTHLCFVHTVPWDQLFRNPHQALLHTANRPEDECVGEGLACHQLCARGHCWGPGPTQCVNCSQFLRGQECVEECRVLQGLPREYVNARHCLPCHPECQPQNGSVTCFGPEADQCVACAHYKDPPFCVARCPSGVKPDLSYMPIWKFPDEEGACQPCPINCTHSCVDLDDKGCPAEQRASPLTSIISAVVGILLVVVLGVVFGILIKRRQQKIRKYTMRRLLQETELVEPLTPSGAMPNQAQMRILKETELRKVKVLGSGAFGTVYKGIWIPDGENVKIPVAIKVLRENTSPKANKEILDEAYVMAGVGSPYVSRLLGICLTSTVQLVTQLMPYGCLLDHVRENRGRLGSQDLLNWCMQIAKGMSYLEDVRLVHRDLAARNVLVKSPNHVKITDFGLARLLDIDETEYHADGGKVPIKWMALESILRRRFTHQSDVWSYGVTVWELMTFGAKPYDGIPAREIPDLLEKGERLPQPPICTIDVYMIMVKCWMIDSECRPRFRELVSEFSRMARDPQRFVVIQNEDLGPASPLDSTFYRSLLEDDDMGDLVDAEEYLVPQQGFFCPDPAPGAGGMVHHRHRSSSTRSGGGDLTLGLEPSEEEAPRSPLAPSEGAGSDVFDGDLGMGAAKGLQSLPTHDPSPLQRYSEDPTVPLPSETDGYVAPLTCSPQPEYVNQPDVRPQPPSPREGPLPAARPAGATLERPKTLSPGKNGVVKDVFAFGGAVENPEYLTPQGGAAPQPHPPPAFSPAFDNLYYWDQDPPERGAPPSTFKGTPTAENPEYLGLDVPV
Method: BT-474 cells were seeded into a 96-well at 2.0*10^4cells/100 μl/well. Compounds were dissolved and serially diluted in DMSO. The compounds were then were added, mixed, and incubated for four hours at 37° C., 5% CO2. […] Following the four hour incubation with compounds, cell lysates were prepared. Plates were centrifuged for 5 min at 3000 RPM, and supernatant was removed from each well. Cells were washed 3 times by resuspension in 150 μl PBS, followed by centrifugation and removal of the supernatant, as above. 100 μl of cell lysis buffer (Boston BioProducts, cat #BP-115D) supplied with 1×complete ULTRA cocktail inhibitor (Thermo ScientificTM, cat #78443) was then added to the washed cells. Cells were incubated with lysis buffer for 1 hour at 4° C., and then stored at -80° C. Enzyme-linked immunosorbent assays (ELISA) were performed to measure phosphorylated ERBB2 levels. […] The next day, plates were washed with PBS+0.05% Tween20 (PBST). 150 μl of 5% BSA blocking solution was added for 1 hour at room temperature, with shaking. Plates were washed with PBST. Cell lysates were thawed and 100 μl of lysate was added to the ELISA plate. The plates were incubated for 2 hours at room temperature, with shaking. ELISA plates were then washed with PBST and 100 μl of an HRP-labeled detection antibody that binds phosphorylated tyrosine (R&D Systems, cat #841913) was added to each well. Plates were incubated for 1 hour at room temperature, with shaking. Plates were then washed with PBST, and 100 μl TMB substrate solution (R&D Systems, cat #DY999) was added. Plate were incubated in the dark for 20 minutes at room temperature. 50 μl of Stop solution (R&D Systems, cat #DY994) (50 μl) was added to each well and mixed. […] The remaining kinase activity by calculated using the following formula: % Relative activity=100×([…]). The low and high control values (“LC” and “HC”) were generated from lysate from wells without cells or with cells treated with 0.1% DMSO, respectively.

phosphorylated EGFR (pEGFR), sequence (P00533 25-1210): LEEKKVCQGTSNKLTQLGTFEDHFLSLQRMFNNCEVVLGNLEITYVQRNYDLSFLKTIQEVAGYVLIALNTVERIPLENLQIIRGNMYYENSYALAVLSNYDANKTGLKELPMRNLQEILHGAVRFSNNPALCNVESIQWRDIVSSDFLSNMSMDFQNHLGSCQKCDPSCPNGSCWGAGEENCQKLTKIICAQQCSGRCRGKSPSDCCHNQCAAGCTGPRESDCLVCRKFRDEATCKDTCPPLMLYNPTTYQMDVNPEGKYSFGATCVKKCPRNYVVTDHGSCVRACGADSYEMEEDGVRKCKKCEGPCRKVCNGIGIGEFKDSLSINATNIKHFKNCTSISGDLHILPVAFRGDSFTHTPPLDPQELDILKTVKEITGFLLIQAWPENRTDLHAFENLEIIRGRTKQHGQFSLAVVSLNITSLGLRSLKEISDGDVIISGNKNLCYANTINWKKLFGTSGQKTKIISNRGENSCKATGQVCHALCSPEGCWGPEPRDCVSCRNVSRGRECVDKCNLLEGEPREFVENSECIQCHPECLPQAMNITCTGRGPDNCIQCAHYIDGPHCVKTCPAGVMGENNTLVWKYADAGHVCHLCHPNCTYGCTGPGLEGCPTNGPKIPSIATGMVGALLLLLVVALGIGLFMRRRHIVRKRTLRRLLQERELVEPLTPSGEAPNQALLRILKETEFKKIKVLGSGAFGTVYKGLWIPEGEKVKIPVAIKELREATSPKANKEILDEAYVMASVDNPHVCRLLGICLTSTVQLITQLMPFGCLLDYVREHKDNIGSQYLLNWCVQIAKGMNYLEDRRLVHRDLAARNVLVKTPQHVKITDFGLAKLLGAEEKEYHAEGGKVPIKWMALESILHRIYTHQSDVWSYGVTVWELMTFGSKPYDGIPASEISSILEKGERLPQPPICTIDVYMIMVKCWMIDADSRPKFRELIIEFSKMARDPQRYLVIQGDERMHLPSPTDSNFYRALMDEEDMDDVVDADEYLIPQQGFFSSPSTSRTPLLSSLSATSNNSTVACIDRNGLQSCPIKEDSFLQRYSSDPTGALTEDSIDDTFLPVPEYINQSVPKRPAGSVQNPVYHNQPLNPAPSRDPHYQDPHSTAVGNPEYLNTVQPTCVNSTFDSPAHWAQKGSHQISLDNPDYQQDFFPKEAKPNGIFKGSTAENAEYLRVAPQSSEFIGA

Q: For `Cc1cc(Nc2ncnc3cc4c(nc23)N2CCN(C(=O)/C=C/C3(F)CN(C)C3)C(CO4)C2)ccc1Oc1ccn2ncnc2c1` (stereo in doubt) [Compound 53, (E)-1-((10S)-4-((4-([1,2,4]triazolo[1,5-a]pyridin-7-yloxy)-3-methylphenyl)amino)-7,8,10,11-tetrahydro-9H-6,10-methanopyrimido[4′,5′:5,6]pyrido[3,2-b][1,4,7]oxadiazonin-9-yl)-3-(3-fluoro-1-methylazetidin-3-yl)prop-2-en-1-one], which IC50 [1] is on record?
A: Its IC50 is 3.39 µM.

Q: What about the IC50 [2] of the same compound?
A: The IC50 was 0.0511 µM.

Q: For `Cc1cc(Nc2ncnc3cc4c(nc23)N2CCN(C(=O)/C=C/[C@H]3CCCN3C)C(CO4)C2)ccc1Oc1ccn2ncnc2c1` (stereo in doubt) [Compound 27, (E)-1-((10S)-4-((4-([1,2,4]triazolo[1,5-a]pyridin-7-yloxy)-3-methylphenyl)amino)-7,8,10,11-tetrahydro-9H-6,10-methanopyrimido[4′,5′:5,6]pyrido[3,2-b][1,4,7]oxadiazonin-9-yl)-3-((R)-1-methylpyrrolidin-2-yl)prop-2-en-1-one], which IC50 [1] is on record?
A: Its IC50 is 5.26 µM.

Q: What about the IC50 [2] of the same compound?
A: Its IC50 is 0.0144 µM.

Q: What does the source list for `CN(C)C/C=C/C(=O)N1CCN2CC1COc1cc3ncnc(Nc4ccc(Oc5ccn6ncnc6c5)cc4F)c3nc12` (stereo in doubt) [Compound 42, (E)-1-((10S)-4-((4-([1,2,4]triazolo[1,5-a]pyridin-7-yloxy)-2-fluorophenyl)amino)-7,8,10,11-tetrahydro-9H-6,10-methanopyrimido[4′,5′:5,6]pyrido[3,2-b][1,4,7]oxadiazonin-9-yl)-4-(dimethylamino)but-2-en-1-one]?
A: IC50 [1]: 1.94 µM; IC50 [2]: 0.0108 µM

Q: With `Cc1cc(Nc2ncnc3cc4c(nc23)N2CCN(C(=O)/C=C/C3CN(C)C3)C(CO4)C2)ccc1Oc1ccn2ncnc2c1` (stereo in doubt) [Compound 45, (E)-1-((10S)-4-((4-([1,2,4]triazolo[1,5-a]pyridin-7-yloxy)-3-methylphenyl)amino)-7,8,10,11-tetrahydro-9H-6,10-methanopyrimido[4′,5′:5,6]pyrido[3,2-b][1,4,7]oxadiazonin-9-yl)-3-(1-methylazetidin-3-yl)prop-2-en-1-one] as the compound, how does the IC50 [1] read?
A: Its IC50 is over 10 µM.

Q: And the IC50 [2]?
A: The IC50 was 0.0273 µM.

Q: With `CN(C)C/C=C/C(=O)N1CCN2CC1COc1cc3ncnc(Nc4ccc(Oc5ccn6ncnc6c5)c(F)c4)c3nc12` (stereo in doubt) [Compound 39, (E)-1-((10S)-4-((4-([1,2,4]triazolo[1,5-a]pyridin-7-yloxy)-3-fluorophenyl)amino)-7,8,10,11-tetrahydro-9H-6,10-methanopyrimido[4′,5′:5,6]pyrido[3,2-b][1,4,7]oxadiazonin-9-yl)-4-(dimethylamino)but-2-en-1-one] as the compound, how does the IC50 [1] read?
A: The IC50 was 6.17 µM.

Q: And the IC50 [2]?
A: The IC50 was 0.00892 µM.

Q: Which IC50 [1] does the source give for `Cc1cc(Nc2ncnc3cc4c(nc23)N2CCN(C(=O)/C=C/CN(C)C)CC(CO4)C2)ccc1Oc1ccn2ncnc2c1` (stereo not shown) [Compound 57, (E)-1-(4-((4-([1,2,4]triazolo[1,5-a]pyridin-7-yloxy)-3-methylphenyl)amino)-7,8,11,12-tetrahydro-6,11-methanopyrimido[4,5′:5,6]pyrido[3,2-b][1,4,7]oxadiazecin-9 (10H)-yl)-4-(dimethylamino)but-2-en-1-one] here?
A: Its IC50 is over 10 µM.

Q: And the IC50 [2]?
A: Its IC50 is 0.0328 µM.

Q: With `Cc1cc(Nc2ncnc3cc4c(nc23)N2CCN(C(=O)/C=C/[C@H]3CCCN3C)C(CO4)C2)c(F)cc1Oc1ccn2ncnc2c1` (stereo in doubt) [Compound 41, (E)-1-((10S)-4-((4-([1,2,4]triazolo[1,5-a]pyridin-7-yloxy)-2-fluoro-5-methylphenyl)amino)-7,8,10,11-tetrahydro-9H-6,10-methanopyrimido[4′,5′:5,6]pyrido[3,2-b][1,4,7]oxadiazonin-9-yl)-3-((R)-1-methylpyrrolidin-2-yl)prop-2-en-1-one] as the compound, how does the IC50 [1] read?
A: Its IC50 is 7.3 µM.

Q: And the IC50 [2]?
A: The IC50 was 0.0245 µM.

Q: What does the source list for `[2H]C([2H])(/C=C/C(=O)N1CCN2CC1COc1cc3ncnc(Nc4cc(C)c(Oc5ccn6ncnc6c5)cc4F)c3nc12)N(C)C` (stereo in doubt) [Compound 58, (E)-1-((10S)-4-((4-([1,2,4]triazolo[1,5-a]pyridin-7-yloxy)-2-fluoro-5-methylphenyl)amino)-7,8,10,11-tetrahydro-9H-6,10-methanopyrimido[4′,5′:5,6]pyrido[3,2-b][1,4,7]oxadiazonin-9-yl)-4-(dimethylamino)but-2-en-1-one-4,4-d2]?
A: IC50 [1]: 0.869 µM; IC50 [2]: 0.0055 µM

Q: `CC#CC(=O)N1CCN2CC1COc1cc3ncnc(Nc4ccc(Oc5ccn6ncnc6c5)c(C)c4)c3nc12` (stereo in doubt) [Compound 18, 1-((10S)-4-((4-([1,2,4]triazolo[1,5-a]pyridin-7-yloxy)-3-methylphenyl)amino)-7,8,10,11-tetrahydro-9H-6,10-methanopyrimido[4′,5′:5,6]pyrido[3,2-b][1,4,7]oxadiazonin-9-yl)but-2-yn-1-one] was tested. Which IC50 [1] did it give?
A: The IC50 was 4.43 µM.

Q: What about the IC50 [2] of the same compound?
A: Its IC50 is 0.0628 µM.

Q: How did the IC50 [1] turn out when `Cc1cc(Nc2ncnc3cc4c(nc23)N2CCN(C(=O)/C=C/CN(C)C)C(CO4)C2)ccc1Oc1ccc2c(c1)ncn2C` (stereo in doubt) [Compound 6, (E)-4-(dimethylamino)-1-((10S)-4-((3-methyl-4-((1-methyl-1H-benzo[d]imidazol-5-yl)oxy)phenyl)amino)-7,8,10,11-tetrahydro-9H-6,10-methanopyrimido[4′,5′:5,6]pyrido[3,2-b][1,4,7]oxadiazonin-9-yl)but-2-en-1-one] was run?
A: Its IC50 is 2.19 µM.

Q: And the IC50 [2]?
A: Its IC50 is 0.0342 µM.

Q: How did the IC50 [1] turn out when `Cc1cc(Nc2ncnc3cc4c(nc23)N2CCN(C(=O)/C=C/CN(C)C)C(CO4)C2)ccc1Oc1ccn2ncnc2c1` (stereo in doubt) [Compound 10, (E)-1-((10S)-4-((4-([1,2,4]triazolo[1,5-a]pyridin-7-yloxy)-3-methylphenyl)amino)-7,8,10,11-tetrahydro-9H-6,10-methanopyrimido[4′,5′:5,6]pyrido[3,2-b][1,4,7]oxadiazonin-9-yl)-4-(dimethylamino)but-2-en-1-one] was run?
A: The IC50 was 3.04 µM.

Q: What about the IC50 [2] of the same compound?
A: Its IC50 is 0.0052 µM.

Q: How did the IC50 [1] turn out when `Cc1cc(Nc2ncnc3cc4c(c(F)c23)N2CCN(C(=O)/C=C/CN(C)C)C(CO4)C2)ccc1Oc1ccn2ncnc2c1` (stereo in doubt) [Compound 40, (E)-1-((10S)-4-((4-([1,2,4]triazolo[1,5-a]pyridin-7-yloxy)-3-methylphenyl)amino)-5-fluoro-7,8,10,11-tetrahydro-9H-6,10-methano[1,4,7]oxadiazonino[3,2-g]quinazolin-9-yl)-4-(dimethylamino)but-2-en-1-one] was run?
A: Its IC50 is over 10 µM.

Q: And the IC50 [2]?
A: Its IC50 is 0.0185 µM.

Q: Which results are given for `CC#CC(=O)N1CCN2CC1COc1cc3ncnc(Nc4ccc(Oc5ccn6ncnc6c5)c(C)c4)c3cc12` (stereo in doubt) [Compound 12, 1-((10S)-4-((4-([1,2,4]triazolo[1,5-a]pyridin-7-yloxy)-3-methylphenyl)amino)-7,8,10,11-tetrahydro-9H-6,10-methano[1,4,7]oxadiazonino[3,2-g]quinazolin-9-yl)but-2-yn-1-one]?
A: IC50 [1]: 7.06 µM; IC50 [2]: 0.0428 µM

Q: What does the source list for `CNC/C=C/C(=O)N1CCN2CC1COc1cc3ncnc(Nc4cc(C)c(Oc5ccn6ncnc6c5)cc4F)c3nc12` (stereo in doubt) [Compound 49, (E)-1-((10S)-4-((4-([1,2,4]triazolo[1,5-a]pyridin-7-yloxy)-2-fluoro-5-methylphenyl)amino)-7,8,10,11-tetrahydro-9H-6,10-methanopyrimido[4′,5′:5,6]pyrido[3,2-b][1,4,7]oxadiazonin-9-yl)-4-(methylamino)but-2-en-1-one]?
A: IC50 [1]: 2.65 µM; IC50 [2]: 0.0315 µM
